Earlier results on 1 compound are cited in patent publication US20050136114A1, “Taste masked pharmaceutical compositions comprising bitter drug and pH sensitive polymer” (COUNCIL OF SCIENTIFIC AND INDUSTRIAL RESEARCH, priority 2003, published 2005).

The conditions of data set [1]: in presence of Eudragit E.
For data set [2] the following is noted: oral, humans.

As to `CO/N=C(\C(=O)N[C@@H]1C(=O)N2C(C(=O)OC(C)OC(C)=O)=C(COC(N)=O)CS[C@H]12)c1ccco1` (some centres unmarked) [cefuroxime axetil], the degradation entry in data set [1] was “significant degradation”. Besides, in data set [2], the bioavailability is recorded as 32-50%.
